Test system: Adult, male Wistar rats
Test: Sleep-wakefulness monitoring (EEG/EMG, SCORE-2000) in rats: NREM sleep cumulation and longest uninterrupted sleep bout
Assay type: in vivo, rat
Details: for LUSB (longest uninterrupted sleep bout each hour, mean adjusted for baseline and vehicle control) / NREM (mean maximum cumulation of NREM sleep over baseline, adjusted for baseline and vehicle control): intraperitoneal bolus at CT-18, male Wistar rats; for Increase of NREM sleep cumulation versus vehicle control (FIGS. 1-3), in words / Increase of LUSB versus vehicle control (FIGS. 4-6), in words: rats
Experimental: Sleep-wakefulness, locomotor activity and body temperature were monitored in vivo with the disclosed racemic sleep-inducing agent 1 and its R and S isomers 1-R and 1-S. Adult, male Wistar rats (250 g at time of surgery, Charles River Laboratories, Wilmington Mass.) were anesthetized (Nembutal, 62 mg/kg) and surgically prepared with a cranial implant to permit chronic electro-encephalogram (EEG) and electromyogram (EMG) recording. Body temperature and locomotor activity were monitored via a miniature transmitter (Mini-Mitter, Bend, Oreg.) surgically placed in the abdomen. The cranial implant consisted of stainless steel screws (two frontal [+3.2 AP from bregma, ±2.0 ML] and two occipital [−6.9 AP, ±5.5 ML]) for EEG recording. Two Teflon®-coated stainless steel wires were positioned under the nuchal trapezoid muscles for EMG recording. All leads were soldered to a miniature connector prior to surgery, and gas sterilized in ethylene oxide. The implant assembly was affixed to the skull with dental acrylic. A minimum of three weeks was allowed for surgical recovery.
Each rat was permanently housed in its own individual recording cage located within separate, ventilated compartments of custom- designed stainless steel cabinets. Each cage was enhanced with a filter-top riser and low-torque swivel-commutator. Food and water were available ad libitum. A 24-hr light-dark cycle (12 hours light, 12 hours dark) was maintained throughout the study using 4-watt fluorescent bulbs 5 cm from the cage. Animals were undisturbed for at least 48 hours before and after treatments.
Sleep and wakefulness were determined using “SCORE-2000™” (Hypnion, Worcester, Mass.)—an internet-based sleep-wake and physiological monitoring system. The system monitored amplified EEG (bandpass 1-30 Hz; digitization rate 400 Hz), integrated EMG (bandpass 10-100 Hz), body temperature and non-specific locomotor activity (LMA) via telemetry, and drinking activity, continuously and simultaneously. Arousal states were classified on-line as non-REM (NREM) sleep, REM sleep, wake, or theta-dominated wake every 10 seconds using EEG feature extraction and pattern-matching algorithms. […] The classification algorithm used individually-taught EEG-arousal-state templates, plus EMG criteria to differentiate REM sleep from theta-dominated wakefulness, plus behavior-dependent contextual rules (e.g., if the animal was drinking, it is awake). Drinking and locomotor activity (LMA) were recorded as discrete events every 10 seconds, while body temperature was recorded each minute. Locomotor activity was detected by a telemetry receiver (Mini-Mitter) beneath the cage. Telemetry measures (LMA and body temperature) were not part of the scoring algorithm; thus, sleep-scoring and telemetry data were independent measures.
Compounds were administered at CT-18, the peak of the activity-dominated period, in order to ensure prior wakefulness was sufficient to interact positively with hypnotic-drug effects, and sufficient time was allowed to view the time course of the treatment effect before lights-on (6 hours post-treatment). Compounds were suspended in sterile 0.25% or 0.5% methylcellulose (2 ml/kg). Treatments were administered as an intraperitoneal bolus.
A parallel group study design was employed. Vehicle controls were drawn from a large pool (N>200): a subset of the pooled vehicle controls was selected, based on computerized matching with the 24-hour pre-treatment baseline of the active treatment group.
In Table 1, N is the number of trials, and NREM and LUSB values are means adjusted for both baseline and vehicle control values. NREM represents the mean maximum cumulation of NREM sleep in minutes over baseline as a function of time in hours after treatment with the compound or the vehicle control; LUSB is the longest uninterrupted sleep bout each hour in minutes as a function of circadian time.

| SMILES | LUSB (longest uninterrupted sleep bout each hour, mean adjusted for baseline and vehicle control) (3 mg/kg) [min] | NREM (mean maximum cumulation of NREM sleep over baseline, adjusted for baseline and vehicle control) (3 mg/kg) [min] | LUSB (longest uninterrupted sleep bout each hour, mean adjusted for baseline and vehicle control) (10 mg/kg) [min] | NREM (mean maximum cumulation of NREM sleep over baseline, adjusted for baseline and vehicle control) (10 mg/kg) [min] | Increase of NREM sleep cumulation versus vehicle control (FIGS. 1-3), in words (10 mg/kg) | LUSB (longest uninterrupted sleep bout each hour, mean adjusted for baseline and vehicle control) (30 mg/kg) [min] | NREM (mean maximum cumulation of NREM sleep over baseline, adjusted for baseline and vehicle control) (30 mg/kg) [min] | Increase of LUSB versus vehicle control (FIGS. 4-6), in words (30 mg/kg) | Increase of NREM sleep cumulation versus vehicle control (FIGS. 1-3), in words (30 mg/kg) | LUSB (longest uninterrupted sleep bout each hour, mean adjusted for baseline and vehicle control) (45 mg/kg) [min] | NREM (mean maximum cumulation of NREM sleep over baseline, adjusted for baseline and vehicle control) (45 mg/kg) [min] |
| --- | --- | --- | --- | --- | --- | --- | --- | --- | --- | --- | --- |
| O=C(O)C1CCCN(CCC=C2c3ccccc3CCc3ccccc32)C1 (racemic) [Compound 1] | 4.7 | 15 | 2.8 | 24.8 | particularly effective | 4.9 | 35.4 | effective at increasing LUSB | effective at increasing NREM cumulation |  |  |
| O=C(O)[C@@H]1CCCN(CCC=C2c3ccccc3CCc3ccccc32)C1 [Compound 1-R] |  |  | 2.5 | 3.4 |  | 5.8 | 20.7 | effective at increasing LUSB | effective at increasing NREM cumulation | 10.3 | 31.8 |
| O=C(O)[C@H]1CCCN(CCC=C2c3ccccc3CCc3ccccc32)C1 [Compound 1-S] |  |  | 5.5 | 31.9 | particularly effective | 9.7 | 31.8 | effective at increasing LUSB | effective at increasing NREM cumulation |  |  |
